From patent publication US20030003088A1, “Human pancreatic pluripotential stem cell line” (Board of Trustees operating Michigan State University, priority 2001, published 2003)
Entries after “also recorded” stand apart in the source; their conditions may differ.

What was measured:
[1] = test system: HPDE6c7 cells; assay: Assay (B): inhibition of forskolin-induced GJIC, Lucifer yellow dye transfer, PAH given only at time −30 min; conditions: for GJIC, Average (% change over control at −30 min), −30 min / GJIC, Average (% change over control at −30 min), 0 hr / GJIC, Average (% change over control at −30 min), 24 hr / GJIC, Average (% change over control at −30 min), 48 hr / GJIC, Average (% change over control at −30 min), 72 hr: 70 μM PAH given at time −30 min only; for GJIC, Average (% change over control at −30 min), −30 min: at time of addition; for GJIC, Average (% change over control at −30 min), 0 hr / GJIC, Average (% change over control at −30 min), 24 hr / GJIC, Average (% change over control at −30 min), 48 hr / GJIC, Average (% change over control at −30 min), 72 hr: forskolin 5 μM
[2] = test system: HPDE6c7 cells; assay: Assay (A): inhibition of forskolin-induced GJIC, Lucifer yellow dye transfer, PAH given at every medium change; format: cell-based, human; conditions: for GJIC, Average (% change over control at −30 min), −30 min / GJIC, Average (% change over control at −30 min), 0 hr / GJIC, Average (% change over control at −30 min), 24 hr / GJIC, Average (% change over control at −30 min), 48 hr / GJIC, Average (% change over control at −30 min), 72 hr: 70 μM PAH given at every medium change; for GJIC, Average (% change over control at −30 min), −30 min: at time of addition; for GJIC, Average (% change over control at −30 min), 0 hr / GJIC, Average (% change over control at −30 min), 24 hr / GJIC, Average (% change over control at −30 min), 48 hr / GJIC, Average (% change over control at −30 min), 72 hr: forskolin 5 μM; for inhibition of GJIC induced by forskolin: 70 μM, PAH at every medium change
[3] = test system: HPDE6c7 cells; assay: GJIC competence under c-AMP elevating agents, Lucifer yellow dye transfer; format: cell-based, human; conditions: in KBM, 48 hours
Experimental: The ability of the HPDE6c7 cells to communicate via gap junctions under various growth conditions was measured using the lucifer yellow dye transfer method as developed by El-Fouly et al. (Exp. Cell Res. 168: 422-430 (1987)). Briefly, near confluent cultures of the cells grown as in Example 1 were subjected to the desired treatment, either growth in KBM or KBM containing c-AMP elevating agents such as forskolin or forskolin and 3-isobutyl-1-methylxanthine (IBMX), both from Sigma Chemical Co., St. Louis, Mo. Then, lucifer yellow was loaded into the cells by making two or three scrape lines in the monolayer with a sharp scalpel. […] Quantifying the extent of communication was done using an image analysis program.

[4] = test system: insulin promoter in HPDE6c7 cells; assay: Insulin promoter activity, AdINSGFP (GFP under insulin promoter) infected cells; format: cell-based, human
Experimental: To determine whether the insulin promoter in the HPDE6c7 cells is active, the cells were infected with adenovirus AdINSGFP, a virus vector that expresses the Green Fluorescence Protein (GFP) under the regulation of the insulin promoter.
Nicotinamide is known to affect cell differentiation. Therefore, the effect of nicotinamide on the activity of the insulin promoter in HPDE6c7 cells was determined. The […] cells were plated on plastic cell culture dishes for two days. Then the cells were infected with about 50 pfu/cell AdINSGFP for one hour. Afterwards, the cells were washed and incubated for three days in KBM containing 10 mM nicotinamide.

[5] = test system: HPDE6c7 cells; assay: Induction of insulin production / release into the media; format: cell-based, human; conditions: for synthesis and release of insulin / appearance of insulin in the media: preliminary data
[6] = test system: HPDE6c7 cells; assay: Growth of cells in culture with growth factors; format: cell-based, human

Q: What does the source list for `Cc1cccc2cc3ccccc3cc12` [1-MeA, 1-methylanthracine]?
A: GJIC, Average (% change over control at −30 min), −30 min [1]: 100.00%; GJIC, Average (% change over control at −30 min), 0 hr [1]: 77.04%; GJIC, Average (% change over control at −30 min), 24 hr [1]: 233.32%; GJIC, Average (% change over control at −30 min), 48 hr [1]: 246.93%; GJIC, Average (% change over control at −30 min), 72 hr [1]: 261.32%; lethal effects on the cells / cytotoxicity ([1]; 70 μM, PAH at −30 min only): no lethal effects; also recorded: not cytotoxic; reversibility of the inhibition of GJIC ([1]; 70 μM, PAH at −30 min only): reversible; GJIC, Average (% change over control at −30 min), −30 min [2]: 100.00%; GJIC, Average (% change over control at −30 min), 0 hr [2]: 89.37%; GJIC, Average (% change over control at −30 min), 24 hr [2]: 92.24%; GJIC, Average (% change over control at −30 min), 48 hr [2]: 81.77%; GJIC, Average (% change over control at −30 min), 72 hr [2]: 212.39%; inhibition of GJIC induced by forskolin [2]: inhibited GJIC that had been induced by forskolin

Q: For `Cc1ccc2cc3ccccc3cc2c1` [2-MeA, 2-methylanthracine], which “GJIC, Average (% change over control at −30 min), −30 min” value [1] is on record?
A: 100.00%

Q: What about the “GJIC, Average (% change over control at −30 min), 0 hr” value [1] of the same molecule?
A: 89.95%

Q: What about the “GJIC, Average (% change over control at −30 min), 24 hr” value [1] of the same molecule?
A: 265.70%

Q: What about the “GJIC, Average (% change over control at −30 min), 48 hr” value [1] of the same molecule?
A: 260.89%

Q: What about the “GJIC, Average (% change over control at −30 min), 72 hr” value [1] of the same molecule?
A: 260.89%

Q: What about the “GJIC, Average (% change over control at −30 min), −30 min” value [2] of the same molecule?
A: 100.00%

Q: And the “GJIC, Average (% change over control at −30 min), 0 hr” value [2]?
A: 102.06%

Q: And the “GJIC, Average (% change over control at −30 min), 24 hr” value [2]?
A: 197.60%

Q: And the “GJIC, Average (% change over control at −30 min), 48 hr” value [2]?
A: 227.15%

Q: And the “GJIC, Average (% change over control at −30 min), 72 hr” value [2]?
A: 271.19%

Q: What about the “inhibition of GJIC induced by forskolin” value [2] of the same molecule?
A: did not

Q: How did the “increase in GJIC relative to complete keratinocyte serum-free medium (KSFM)” value [3] turn out when `C=C[C@@]1(C)CC(=O)[C@]2(O)[C@@]3(C)[C@@H](O)CCC(C)(C)[C@@H]3[C@H](O)[C@H](OC(C)=O)[C@@]2(C)O1` [forskolin] was run?
A: 2.2 fold

Q: What does the source list for `NC(=O)c1cccnc1` [nicotinamide]?
A: activation of the insulin promoter (GFP expressing cells) ([4]; 10 mM in KBM, three days): induces a substantial number of cells to activate the insulin promoter; induction of insulin production [5]: induce the HPDE6c7 cells to produce insulin; synthesis and release of insulin / appearance of insulin in the media [5]: appear to synthesize and release insulin

Q: How did the “induction of insulin production” value [5] turn out when cholera toxin was run?
A: induce the HPDE6c7 cells to produce insulin

Q: Which “synthesis and release of insulin / appearance of insulin in the media” value [5] does the source give for “hepatocyte growth factor: growth factor (mitogen)” here?
A: appear to synthesize and release insulin

Q: What about the “growth of the cells” value [6] of the same molecule?
A: an increase in growth of the cells

Q: Which “turning on the promoter for the insulin gene” value [4] does the source give for sonic hedgehog here?
A: can turn on the promoter for the insulin gene

Q: And the “induction of insulin production” value [5]?
A: induce the HPDE6c7 cells to produce insulin

B1: beta-cellulin: growth factor (mitogen) (protein, UniProt P35070 32-111, looked up)
Betacellulin: DGNSTRSPETNGLLCGDPEENCAATTTQSKRKGHFSRCPKQYKHYCIKGRCRFVVAEQTPSCVCDEGYIGARCERVDLFY
Q: For B1, which “growth of the cells” value [6] is on record?
A: an increase in growth of the cells
